Assay results: a melting point compilation (Tetko et al.; mined from patent text by program, amines drawn as free bases though some values may be those of a salt)

melting point | SMILES
115 to 117 °C | O=[N+]([O-])C(=Cc1ccco1)C1=NCCN1CC1CCOC1 (stereo unspecified)
167 to 168 °C | O=CN(O)C(CO)CS(=O)(=O)c1ccc(-c2ccc(OC(F)(F)F)cc2)cc1 (stereo unspecified)
132 to 133 °C | COc1ccc(-c2c(CBr)c3ccc(OC)cc3oc2=O)c(OC(C)=O)c1
222 to 225 °C | Cc1cc(C)c(N=c2cc(-c3ccc(O)c(O)c3)n(C)c(=O)n2C)c(C)c1
85.5 to 86 °C | COC(=O)c1cc2c(c(OC)c1Br)OCO2
103 to 105 °C | CC(C)[C@H](NC(=O)N(C)Cc1csc(NC(=O)OC(C)(C)C)n1)C(=O)N[C@@H](Cc1ccccc1)C[C@H](O)[C@H](Cc1ccccc1)NC(=O)OCc1cccnc1
206 to 207 °C | CCn1nnc(NC(=O)C2c3ccccc3Cc3ccccc32)n1
75 to 77 °C | Fc1cccc(F)c1C1=NC(c2ccc(-c3ccc(SC(F)F)cc3)cc2)CO1 (stereo unspecified)
74 to 76 °C | CCC(=O)N(O)C(C)c1ccco1 (stereo unspecified)
135 to 136 °C | CCCC(Oc1ccccc1COc1ccc2oc(-c3nc(C(C)(C)C)cs3)cc2c1)C(=O)O (stereo unspecified)
142 to 144 °C | CN1CSC(=Cc2cc(C(C)(C)C)c(O)c(C(C)(C)C)c2)C1=O
78 to 79 °C | CCC(CC)n1nnc2c(Cl)nc(C)cc21
218 to 219 °C | NC(=O)NN=Cc1ccc(OCC2CCCCC2)cc1
186 to 189 °C | Nc1cc(Cl)c(N2CCCCC2)cc1-c1noc(=O)[nH]1
89 to 92 °C | COc1ccc(S(=O)(=O)C(CC=C(C)C)(Cc2cccnc2)C(=O)NO)cc1 (stereo unspecified)
165 to 166 °C | CCCC(C=NNC(=O)OC)c1ccc(Cl)cc1Cl (stereo unspecified)
102 to 103 °C | O=C(CBr)c1ccc(-c2ccc(F)cc2)cc1
180 to 182 °C | CC(CCCC(C)(C)O)C1CCC2C3C=CC4=CC(=O)C=CC4(C)C3CCC12C (stereo unspecified)
166 to 167 °C | CC1(COC2(C(F)(F)F)CN(C3CC3)C(=O)Nc3ccc(Cl)cc32)CC1 (stereo unspecified)
> 250 °C | O=C(O)c1cc([N+](=O)[O-])cc2c1Nc1ccc(CCc3ccc(Cl)c(Cl)c3)cc1O2
112 to 119 °C | CN(C)S(=O)(=O)Cc1ccccc1C(=O)O
202 to 204 °C | N#Cc1c(N2CCCC2)cc(-c2ccccc2)c2c1-c1ccccc1C2=O
180 to 181 °C | Nc1cc(CC(=O)O)cc2c1NC(C(F)(F)F)CC2 (stereo unspecified)
111 to 112 °C | OCc1csc(CN2CCCC2)c1

melting point | SMILES
139 to 141 °C | O=C(CN1CCN(C(=O)OCc2ccc(C(F)(F)F)cc2)CC1)N1CCC2(CC1)Cn1cc([N+](=O)[O-])nc1O2
177 to 180 °C | NS(=O)(=O)c1ccc(-n2nc(C=O)cc2-c2ccccc2)cc1
189 to 192 °C | CCCn1c(=O)cc(N)n(Cc2ccccc2)c1=O
247 to 248 °C | COc1ccc2nc3sc(C(=O)O)cn3c(=O)c2c1
182 to 184 °C | CC1=NNS(=O)(=O)c2sc(Cl)cc21
95 to 96 °C | CCOC(=O)c1cc2cc(N(C)C)ccc2s1
203 to 205 °C | CCCCCCCCCCCCCCCCCCS(=O)(=O)c1cc(C(=O)O)c([N+](=O)[O-])c(C(=O)O)c1
147 to 149 °C | O=c1[nH]nc2c3c(cccc13)N=C(CN1CCCNCC1)N2
240 to 241 °C | COc1ccc(-c2c(C(=O)O)c(=O)[nH]c3ccc(C)cc23)cc1OC
138 to 139 °C | CCC(C(=O)O)N(C(=O)c1cccn1-c1ccc(F)cc1)c1ccc(N2CCCCC2)c(C#N)c1 (stereo unspecified)
131 to 134 °C | O=Cc1c(N2CCCC2)n(C2OC(CO)C(O)C2O)c2cc(Cl)c(Cl)cc12 (stereo unspecified)
145 °C | CCCn1c(=O)c2c(nc(C3CCC(=O)C3)n2Cc2ccccc2)n(CCC)c1=O (stereo unspecified)
258 °C | CC1SC(=O)NN=C1c1ccc2c(c1)C(=Cc1ccccc1[N+](=O)[O-])C(=O)N2 (stereo unspecified)
56 to 64 °C | CCCN(CCC)C1CCc2ccc3c(c2C1)OCC3=O (stereo unspecified)
180 to 183 °C | NC(=O)C1CN(CC(=O)Nc2c(Cl)cccc2Cl)CCN1 (stereo unspecified)
145 °C | CCOc1nc(-c2cccc(Cl)c2)c2cc(C(O)(c3ccc(C(=O)OC(C)C)cc3)c3cncn3C)ccc2n1 (stereo unspecified)
140 to 141 °C | CC(C)(C)OC(=O)C(N)C1NC(C(=O)OCc2ccccc2)C2(CCN(Cc3ccccc3)CC2)S1 (stereo unspecified)
125 to 127 °C | CC(=O)Oc1ccc(C=CC(=O)Nc2cc(C)c(OCc3ccccc3)c(C)c2)cc1OC(C)=O
188 to 193 °C | Cc1nc2c(-c3cccc(N4CCC(N5CCCC5)CC4)c3)cnn2c(N)c1-c1cccc(Cl)c1
171 to 172 °C | COc1ccc(NC(=O)c2ccc(F)cc2)cc1
155 to 156 °C | N#CN=C(Nc1ccc(C#N)cc1O)Nc1cccc(Cl)c1Cl
262 to 264 °C | N#Cc1cc(N)c(N)cc1C#N
164 to 166 °C | O=C1Cc2c(cccc2OCC2CO2)N1 (stereo unspecified)
240 °C | CCS(=O)c1ccc(-c2nc(-c3ccc(F)cc3)c(-c3ccncc3)[nH]2)cc1 (stereo unspecified)

melting point | SMILES
225 to 226 °C | CCCOc1ccc(S(=O)(=O)N2CCN(CC)CC2)cc1-c1nc2cc3ncn(Cc4ccccc4Cl)c3cc2c(=O)[nH]1
103 to 104 °C | CCS(=O)(=O)C(F)(F)c1nnc(OCC(=O)N(C)c2ccccc2)s1
109 to 110 °C | CCOc1nn(-c2ccc(C(F)(F)F)cn2)cc1CCCCOc1ccccc1CC(=O)O
136 °C | FC(F)(F)c1ccc(-c2cc(C(F)(F)F)n3ncc(Br)c3n2)cc1
163 to 165 °C | CC(=NOc1ncc(F)c(N)n1)c1ccccc1
> 350 °C | O=C(O)/C=C/c1cccc(-c2nc3c(=O)n(CC4CCCCC4)c(=O)n(CC4CCCCC4)c3[nH]2)c1
> 250 °C | CCCn1c(=O)sc2cc(F)c(-n3c(=O)cc(CC)[nH]c3=O)cc21
77 °C | CN(CCO)C(=O)Cc1ccccc1Cl
73 to 77 °C | OCc1cnc(Cl)cc1Cl
128 to 130 °C | O=C1CCOc2cc(OCCn3ccnc3)ccc21
94 to 95 °C | CCOC(=O)c1sc2cc(OCc3cccnc3)ccc2c1Sc1ccccc1
114 to 115 °C | CC(C)(C)c1nnc(-c2ccccn2)[nH]c1=O
174 to 175 °C | Cn1c(Cl)c(C(=O)C(=O)N2CCCC2)c2ccc(Cl)cc21
110 to 112 °C | O=C(CBr)c1cccc(OCc2ccc3ccc(Cl)cc3n2)c1
85 to 87 °C | COc1ccc(C=CC(=O)c2ccc(OCC3CO3)cc2)cc1 (stereo unspecified)
53 to 55 °C | Clc1ncc(C2CCCCC2)c2ccccc12
199 to 200 °C | O=S(=O)(c1ccc(Br)cc1)N1CCN(c2ccncc2)CC1
170 to 172 °C | CC(C)(C)c1cc(Oc2c(Cl)cc(C(F)(F)F)cc2Cl)n[nH]1
192 to 195 °C | Nc1cc(Nc2ccccc2)nc2c1ncn2C1OC(CO)C(O)C1O (stereo unspecified)
260 to 264 °C | O=C(O)Cn1c(=O)c(=O)[nH]c2c([N+](=O)[O-])c(Br)c(Br)cc21
125 °C | COC(=O)c1ccccc1S(=O)(=O)c1ccc(/C=C/c2ccc(F)cc2)cc1
83 °C | C=CCNc1nc(NCC(=C)C)c2scc(C)c2n1
240 to 245 °C | CS(=O)(=O)c1ccc(C(=O)O)c(Cl)c1CO
149 to 150 °C | CCOC(=O)C1=C(CO)NC(CF)=C(C(=O)OCC)C1c1cccc([N+](=O)[O-])c1 (stereo unspecified)

melting point | SMILES
86 °C | CCc1n[nH]c(=O)n1C
192 to 194 °C | CC(C)C[C@H](NC(=O)OCc1ccccc1)C(=O)N[C@@H](CC(N)=O)C(=O)NC(Cc1ccccc1)C(O)C(Cc1ccccc1)NC(=O)OC(C)(C)C (stereo partly specified)
124 to 126 °C | Cc1ccc(NC(=O)N(Cc2ccccc2)Cc2ccccc2)c(C)c1
161 to 163 °C | CCOC(=O)C1=C(C)NC(=O)N(C(=O)OCC)C1c1ccccc1C(F)(F)F (stereo unspecified)
113 to 115 °C | COc1ccc2c(c1)C(O)CC21CCN(CCCC(=O)c2ccc(F)cc2)C1 (stereo unspecified)
166 °C | COc1ccc2ccccc2c1-c1c(C)c2c(c(C)c1P(c1ccccc1)c1ccccc1)CCC2
192 to 194 °C | N#Cc1nc(-c2cnn(-c3c(Cl)cc(C(F)(F)F)cc3Cl)n2)[nH]c1C#N
229 to 234 °C | CNc1nc(S(C)=O)nc(N)c1[N+](=O)[O-] (stereo unspecified)
160 °C | Cc1ccccc1C1=C(CC(=O)Nc2c(C(C)C)cccc2C(C)C)CN(C)c2ccc(Cl)cc21
187 °C | CC(C)CC(=O)N[C@H]1CC[C@H](CCN2CCN(c3nccc4c3OCC4)CC2)CC1
156 to 157 °C | CCC[C@H]1CC[C@H](c2ncc(C(=O)OCC)c(O)n2)CC1
54 °C | O=C1c2ccsc2CCN1Cc1ccccc1
178 °C | CCN(CC)C(=CC(=O)OC)n1c(=O)n2nc(C(=O)OC)c(N(CC)CC)c2c2ccccc21
191 to 193 °C | Cc1c(CCC(=O)O)cc(C(C)(C)C)c(O)c1C
99 to 100 °C | COc1ccccc1C(=CC#N)c1ccccc1OC
116 to 118 °C | OCCCNc1nc2ccccc2n1-c1ccccc1
76 to 79 °C | Cc1cc(OCC(F)(F)F)c(Cl)cc1[N+](=O)[O-]
> 350 °C | O=c1[nH]c2cc(Cl)ccc2c(O)c1-c1ccc(OCc2ccccc2)cc1
152 °C | O=C(NC(c1ccccc1)C(O)c1ccccc1)OCc1ccccc1 (stereo unspecified)
210 to 212 °C | COC1OCC[C@@H]1NC(=O)[C@H](CC(C)C)NC(=O)[C@H](CC(C)C)NC(=O)[C@H](CC(C)C)NC(=O)OCc1ccccc1 (stereo partly specified)
78 °C | CC(C)(C)C(=Cc1ccc(Cl)cc1Cl)Cn1cncn1
213 to 214 °C | O=C(Nc1ccc(-n2nc(C(F)(F)F)cc2C(F)(F)F)cc1)c1ccc(CO)cc1
141 to 143 °C | O=C1c2ccccc2C(=O)N1CCN(OCc1ccccc1)C(=S)Nc1c(F)cccc1F
165 to 166 °C | CC(C)(C)OC(=O)c1sc(Oc2ccc3c(c2)OCO3)c2c1CCc1cnoc1-2

SMILES | melting point
NC1=NCC(COc2ccccc2F)O1 (stereo unspecified) | 124 °C
CN1CCc2c(O)ccc(Cl)c2CC1 | 178 to 180 °C
c1ccc2c(N3CCNCC3)nsc2c1 | 88 to 90 °C
CCOc1cccc(CNCCc2ccccc2)c1O | 88 to 90 °C
CC(=O)C1CCC2C3CCC4CC(O)C(O[N+](=O)[O-])CC4(C)C3C(=O)CC12C (stereo unspecified) | 170 to 176 °C
